Results taken from ChEMBL document CHEMBL6177955, “Design, synthesis and biological evaluation of Golgi-targeting anion transporters as inducers of Golgiphagy and apoptosis in cancer cells” (Eur J Med Chem, 2025).
Activity calls are given as the source filed them. No cut-off for these calls is given here.

How the values were obtained:
[1] = system: Lipid bilayer; assay: Vesicular anionophoric activity in large unilamellar vesicle membrane derived from egg-yolk L-alpha-phosphatidylcholine assessed as induction of relative efflux of chloride ions measured up to 300 seconds by using chloride-selective electrode
[2] = system: Lipid bilayer; assay: Vesicular anionophoric activity in large unilamellar vesicle membrane derived from egg-yolk L-alpha-phosphatidylcholine assessed as induction of relative efflux of chloride ions in presence of lithium (Li+) measured up to 300 seconds by using chloride-selective electrode; settings: time <= 300.0 sec
[3] = system: A2780; assay: Antiproliferative activity against human A2780 cells by MTT assay; assay type: functional, cell-based
[4] = system: HepG2; assay: Antiproliferative activity against human HepG2 cells by MTT assay; assay type: functional, cell-based
[5] = system: HepG2; assay: Induction of chloride ion influx in human HepG2 cells assessed as increase in intracellular chloride anions at 5 to 20 uM measured after 12 hrs incubation by chloride-sensitive dye MQAE-based CLSM imaging analysis; assay type: functional, cell-based; settings: dose 5-20 µM
[6] = system: HepG2; assay: Disruption of homeostasis of chloride anions in golgi apparatus of human HepG2 cells assessed as increase in fluorescence intensity of 6-methoxy-1-(2-oxo-2-((4-sulfamoylphenyl)amino)ethyl)quinolin-1-ium Bromide measured after 12 hts by CLSM imaging analysis; assay type: functional, cell-based
[7] = system: HepG2; assay: Cytotoxicity against human HepG2 cells assessed as cell viability at 1 to 20 uM measured after 24 hrs incubation in presence of chloride anions; assay type: functional, cell-based; settings: dose 1-20 µM
[8] = system: HepG2; assay: Induction of Golgi apparatus disruption in human HepG2 cells at 5 to 10 uM measured after 24 hrs by TEM imaging analysis; assay type: functional, cell-based; settings: dose 5-10 µM
[9] = system: HepG2; assay: Induction of autophagosome formation in human HepG2 cells assessed as green fluorescence in endoplasmic reticulum (ER) by measuring pearson co-localization at 10 uM measured after 12 hrs incubation by mCherry-LC3B assay; assay type: functional
[10] = system: HepG2; assay: Induction of autophagosome formation in human HepG2 cells assessed as green fluorescence in lysosomes by measuring pearson co-localization at 10 uM measured after 12 hrs incubation by mCherry-LC3B assay; assay type: functional
[11] = system: HepG2; assay: Induction of autophagosome formation in human HepG2 cells assessed as green fluorescence in Golgi apparatus by measuring pearson co-localization at 10 uM measured after 12 hrs incubation by mCherry-LC3B assay; assay type: functional
[12] = system: HepG2; assay: Induction of apoptosis in human HepG2 cells assessed as late apoptotic cells at 5 uM measured after 24 hrs incubation by Propidium iodide/Annexin V-FITC analysis (reference value: 5.71%); assay type: functional
[13] = system: HepG2; assay: Induction of apoptosis in human HepG2 cells assessed as viable cells at 10 uM measured after 24 hrs incubation by Propidium iodide/Annexin V-FITC analysis (reference value: 90.2%); assay type: functional; settings: read-out: Activity
[14] = system: HepG2; assay: Induction of apoptosis in human HepG2 cells assessed as late apoptotic cells at 10 uM measured after 24 hrs incubation by Propidium iodide/Annexin V-FITC analysis (reference value: 5.71%); assay type: functional
[15] = system: HepG2; assay: Induction of apoptosis in human HepG2 cells assessed as necrotic cells at 10 uM measured after 24 hrs incubation by Propidium iodide/Annexin V-FITC analysis (reference value: 1.14%); assay type: functional
[16] = system: HepG2; assay: Induction of apoptosis in human HepG2 cells assessed as early apoptotic cells at 20 uM measured after 24 hrs incubation by Propidium iodide/Annexin V-FITC analysis (reference value: 2.90%); assay type: functional
[17] = system: HepG2; assay: Induction of apoptosis in human HepG2 cells assessed as late apoptotic cells at 20 uM measured after 24 hrs incubation by Propidium iodide/Annexin V-FITC analysis (reference value: 5.71%); assay type: functional
[18] = system: HepG2; assay: Cell cycle arrest in human HepG2 cells assessed as accumulation of cells at G2/M phase at 10 uM measured after 24 hrs incubation by flow cytometric analysis; assay type: functional
[19] = Toxicity in mouse xenografted with human HepG2 cells assessed as histopathological changes in heart at 5 to 10 mg/kg, ip administered once every 2 days for 21 days by H and E staining based analysis; assay type: organism-based; settings: in vivo, 504 h, dose 5-10 mg/kg, time 21 day
[20] = system: HepG2; assay: Antitumor activity against human HepG2 cells xenografted mouse model assessed as reduction GRASP55 expression in tumor tissue at 5 to 10 mg/kg, ip administered once every 2 days for 21 days; assay type: functional, organism-based; settings: dose 5-10 mg/kg, time 21.0 day
[21] = system: HepG2; assay: Antitumor activity against human HepG2 cells xenografted mouse model assessed as reduction Golgi-associated apoptotic proteins (GAAPs) expression in tumor tissue at 5 to 10 mg/kg, ip administered once every 2 days for 21 days; assay type: functional, organism-based; settings: dose 5-10 mg/kg, time 21.0 day
[22] = Toxicity in mouse xenografted with human HepG2 cells assessed as histopathological changes in spleen at 5 to 10 mg/kg, ip administered once every 2 days for 21 days by H and E staining based analysis; assay type: organism-based; settings: in vivo, 504 h, dose 5-10 mg/kg, time 21 day
[23] = Toxicity in mouse xenografted with human HepG2 cells assessed as alanine aminotransferase (ALT) in serum at 5 to 10 mg/kg, ip administered once every 2 days for 21 days; assay type: organism-based; settings: in vivo, 504 h, dose 5-10 mg/kg, time 21 day
[24] = Toxicity in mouse xenografted with human HepG2 cells assessed as lactate dehydrogenase (LDH) at 5 to 10 mg/kg, ip administered once every 2 days for 21 days; assay type: organism-based; settings: in vivo, 504 h, dose 5-10 mg/kg, time 21 day

EC50 [1]: 1.53 mol%
Activity [2]: Active
IC50 [3]: > 50 µM
IC50 [4]: 7.13 µM
EC50 [6]: 13.8 µM
Structure (SMILES): NS(=O)(=O)c1ccc(NC(=O)CCCCCNc2c(Nc3cc(C(F)(F)F)cc(C(F)(F)F)c3)c(=O)c2=O)cc1
Activity [5]: Active
Activity [7]: Active; Cytotoxicity Enhanced In Presence Of Chloride Anions
Activity [8]: Active
Activity [9]: 0.13
Activity [10]: 0.58
Activity [11]: 0.83
Activity [12]: 12.9%
viability at 10 µM [13]: 50%
Activity [14]: 24.6%
Activity [15]: 5.17%
Activity [16]: 34.2%
Activity [17]: 36.5%
Activity [18]: 17.16%
Activity [19]: Non-toxic
Activity [20]: Active
Activity [21]: Active
Activity [22]: Non-toxic
Activity [23]: Non-toxic
Activity [24]: Non-toxic
